The results in this text go back to paper PMC5826917, “A small molecule inhibitor of Nicotinamide N-methyltransferase for the treatment of metabolic disorders” (Scientific Reports, 2018).

Data set [1] has as its system endogenous NNMT activity in U2OS cells. The data set is described as follows: Cell based U2OS assay (MNA levels by LC-MS/MS). The note with it: Homo sapiens, 24 h treatment. As for the experimental part: PE-Sciex API-4000 triple quadrupole (PerkinElmerSciex Instruments, Boston, MA) mass spectrometer was employed for this analysis. […] Detection of the ions was performed in the multiple reaction monitoring (MRM) mode, monitoring the transition of the m/z 137 precursor ion to the m/z 92 product ion for MNA and m/z 141 precursor ion to the m/z 84 product ion for d4-MNA (internal standard).
The supernatant was separated and transferred to pre-labeled HPLC vials and analyzed by LC-MS/MS system.

In data set [2] the target is Opioid Receptor mu (OPRM1) (Homo sapiens, UniProt P35372). Nature of the data set: Selectivity panel: OPRM1. The format is cell-based. As for the experimental part:
Supplement 41598_2018_22081_MOESM1_ESM.docx, table 2: Supplementary table 2: Selectivity profile of JBSNF-000088 (at 10 µM) vs a panel of 34 receptors, channels and enzymes. | column: E% (agonistic); I% (antagonistic or inhibitory)

For data set [3], the target named is Adrenoreceptor beta 1 (ADRB1) (Homo sapiens, UniProt P08588). Nature of the data set: Selectivity panel: ADRB1. The format is cell-based.
In data set [4] the target is Histamine Receptor 1 (H1) (Homo sapiens, UniProt P35367). Nature of the data set: Selectivity panel: H1. The format is cell-based.
In data set [5] the test system is SK+Ca channel-. The data set is described as follows: Selectivity panel: SK+Ca channel. The class given is binding. The note with it: 10 µM.
Data set [6] has as its target Adenosine Receptor 1 (ADORA1) (Homo sapiens, UniProt P30542). The data set is described as follows: Selectivity panel: ADORA1. The format is cell-based.
For data set [7], the system named is db/db mice. The data set is described as follows: Chronic efficacy study in db/db mice. The note with it: db/db mice. The procedure: (§1) Samples for MNA were analyzed employing a fit-for-purpose LC-MS/MS method. PE-Sciex API-4000 triple quadrupole (PerkinElmerSciex Instruments, Boston, MA) mass spectrometer was employed for this analysis. Samples (5 µL) were injected onto Kinetex HILIC (50 × 4.6 mm, 2.6 µm; Phenomenex, Torrance, CA, USA) column connected to Shimadzu VP (Shimadzu, Japan) LC system. The gradient mobile phase mixture of 0.2% formic acid and acetonitrile was delivered at a flow rate of 0.45 ml min-1 into the mass spectrometer electrospray ionization (ESI) chamber. Quantitation was achieved by MS/MS detection in positive ion mode for MNA and internal standard (d4–MNA). Detection of the ions was performed in the multiple reaction monitoring (MRM) mode, monitoring the transition of the m/z 137 precursor ion to the m/z 92 product ion for MNA and m/z 141 precursor ion to the m/z 84 product ion for d4-MNA (internal standard).
(§2) A simple protein precipitation extraction method was followed for extraction of N-methylnicotinamide from plasma and various tissue homogenate samples. The tissue samples were homogenized with 1:3 proportions of phosphate buffer saline (PBS) and this homogenate was used for N-Methylnicotinamide determinations. To an aliquot of ~50 μL of plasma/ liver homogenate/ adipose tissue homogenate samples ~300 µl of acetonitrile containing IS (d4-MNA) solution was added, followed by vortex for ~3 minutes and centrifuged for 10 minutes at 14,000 rpm. The supernatant was separated and transferred to pre-labeled HPLC vials and analyzed by LC-MS/MS system.
(§3) Samples for methylated JBSNF-000088 were analyzed employing a fit-for-purpose LC-MS/MS method. PE-Sciex API-5500 triple quadrupole (PerkinElmerSciex Instruments, Boston, MA) mass spectrometer was employed for this analysis. Samples (2 µL) were injected onto Atlantis dC18 (50 × 4.6 mm, 3 µm; Waters, Milford, MA, USA) column connected to Shimadzu VP (Shimadzu, Japan) LC system. The gradient mobile phase mixture of 0.2% formic acid and acetonitrile was delivered at a flow rate of 0.9 mL min-1 into the mass spectrometer electrospray ionization (ESI) chamber. Quantitation was achieved by MS/MS detection in positive ion mode for methylated JBSNF-000088 and internal standard (Tolbutamide). Detection of the ions was performed in the multiple reaction monitoring (MRM) mode, monitoring the transition of the m/z 168 precursor ion to the m/z 128.8, product ion for MNA and m/z 271 precursor ion to the m/z 91 product ion for tolbutamide (internal standard).
(§4) Male C57BL6/N (Vivo Bio Tech Ltd, India), ob/ob (B6.V-Lepob/OlaHsd) and its lean control (Envigo laboratories Inc, USA) and db/db (BKS.Cg- + Leprdb/ + Leprdb/OlaHsd) and its lean control (Envigo laboratories Inc, USA) were housed in individually ventilated cages (n = 5/cage) under standard laboratory conditions. The study room environment was maintained at a temperature of 21–24 °C and, relative humidity at 40–70%. The animal rooms were maintained under 12 h light and dark cycle. Animals were provided with ad libitum access to water and food (except where noted otherwise, e.g. during fasting prior for glucose tolerance tests, fasting prior to terminal sacrifice). Animals were acclimatized for 1 week before initiation of studies. For Diet induced obesity (DIO) mice study, C57BL6/N mice were maintained on rodents chow diet (Teklad; Harlan) or HFD (60% Kcal; Research diet) for 14 weeks before study initiation and throughout the study period. ob/ob and db/db mice and their lean controls were maintained on rodents chow diet (Teklad; Harlan). All the experiments were approved by Institutional Animal Ethics Committee (IAEC) of Jubilant Biosys Ltd, India.
(§5) Lean control + Vehicle and HFD + Vehicle Control groups (G1 and G2) mice were administered with vehicle.

Data set [8] in a line: in vivo. As to conditions: male, db/db (BKS.Cg- + Leprdb/ + Leprdb/OlaHsd), mouse, in vivo, JBSNF-000088 (μM). The procedure: as §1, §2, §3, §4, §5
Data set [9] concerns the target Norepinephrin (Noradrenalin) Transporter (Homo sapiens, UniProt P23975). The data set is described as follows: Selectivity panel: norepinephrine transporter. As to conditions: read-out: I% (antagonistic or inhibitory), Norepinephrin (Noradrenalin) Transporter. The class given is binding. The procedure: Supplement 41598_2018_22081_MOESM1_ESM.docx, table 2: Supplementary table 2: Selectivity profile of JBSNF-000088 (at 10 µM) vs a panel of 34 receptors, channels and enzymes. | column: I% (antagonistic or inhibitory)

In data set [10] the test system is K+ Channel Voltage Dependent. Nature of the data set: Selectivity panel: K+ channel. The format is binding. As to conditions: 10 µM.

Chain of Opioid Receptor mu (OPRM1) (P35372 whole entry): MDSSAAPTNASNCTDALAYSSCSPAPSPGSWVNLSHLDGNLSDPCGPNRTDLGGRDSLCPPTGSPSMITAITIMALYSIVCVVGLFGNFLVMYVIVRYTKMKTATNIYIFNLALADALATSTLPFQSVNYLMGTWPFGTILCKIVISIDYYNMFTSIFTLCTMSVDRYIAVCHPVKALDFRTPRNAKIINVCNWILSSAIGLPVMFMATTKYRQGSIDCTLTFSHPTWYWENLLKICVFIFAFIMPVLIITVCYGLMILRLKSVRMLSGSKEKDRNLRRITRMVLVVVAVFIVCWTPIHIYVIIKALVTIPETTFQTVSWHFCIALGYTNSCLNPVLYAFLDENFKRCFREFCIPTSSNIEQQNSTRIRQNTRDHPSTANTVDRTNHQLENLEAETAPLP
Chain of Adenosine Receptor 1 (ADORA1) (P30542 whole entry): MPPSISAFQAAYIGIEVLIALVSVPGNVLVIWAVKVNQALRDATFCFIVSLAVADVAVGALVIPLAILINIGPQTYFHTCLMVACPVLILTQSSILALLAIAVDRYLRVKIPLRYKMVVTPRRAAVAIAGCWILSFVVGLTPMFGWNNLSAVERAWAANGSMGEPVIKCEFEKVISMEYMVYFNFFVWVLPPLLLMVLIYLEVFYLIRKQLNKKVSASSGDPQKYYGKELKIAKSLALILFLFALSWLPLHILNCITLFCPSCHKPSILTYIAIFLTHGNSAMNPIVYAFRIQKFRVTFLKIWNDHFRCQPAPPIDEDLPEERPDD
Chain of Histamine Receptor 1 (H1) (P35367 whole entry): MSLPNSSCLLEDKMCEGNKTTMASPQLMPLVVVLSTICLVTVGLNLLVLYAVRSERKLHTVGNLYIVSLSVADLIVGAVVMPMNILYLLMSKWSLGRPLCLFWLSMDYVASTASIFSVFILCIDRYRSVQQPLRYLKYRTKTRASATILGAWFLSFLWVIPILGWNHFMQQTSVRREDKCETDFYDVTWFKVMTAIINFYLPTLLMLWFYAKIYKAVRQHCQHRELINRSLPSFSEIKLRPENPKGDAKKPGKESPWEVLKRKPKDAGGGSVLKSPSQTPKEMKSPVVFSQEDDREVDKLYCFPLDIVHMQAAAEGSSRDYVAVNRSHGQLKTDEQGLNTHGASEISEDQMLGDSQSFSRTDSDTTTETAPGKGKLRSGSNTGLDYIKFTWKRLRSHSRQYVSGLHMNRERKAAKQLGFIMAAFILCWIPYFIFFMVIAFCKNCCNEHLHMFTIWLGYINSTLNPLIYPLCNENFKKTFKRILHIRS
Chain of Adrenoreceptor beta 1 (ADRB1) (P08588 whole entry): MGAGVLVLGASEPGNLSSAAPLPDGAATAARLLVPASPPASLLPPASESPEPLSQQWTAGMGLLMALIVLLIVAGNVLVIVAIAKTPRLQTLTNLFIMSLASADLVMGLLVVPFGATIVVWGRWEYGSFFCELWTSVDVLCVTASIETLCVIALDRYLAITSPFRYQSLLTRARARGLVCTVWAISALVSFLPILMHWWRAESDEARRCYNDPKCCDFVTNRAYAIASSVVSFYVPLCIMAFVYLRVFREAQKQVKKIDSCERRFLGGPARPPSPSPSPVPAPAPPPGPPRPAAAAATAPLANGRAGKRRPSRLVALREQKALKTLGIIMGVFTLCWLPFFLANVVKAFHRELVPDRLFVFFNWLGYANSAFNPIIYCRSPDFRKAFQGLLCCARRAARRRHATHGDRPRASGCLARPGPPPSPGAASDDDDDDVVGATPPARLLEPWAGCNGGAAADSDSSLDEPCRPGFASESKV
Chain of Norepinephrin (Noradrenalin) Transporter (P23975 whole entry): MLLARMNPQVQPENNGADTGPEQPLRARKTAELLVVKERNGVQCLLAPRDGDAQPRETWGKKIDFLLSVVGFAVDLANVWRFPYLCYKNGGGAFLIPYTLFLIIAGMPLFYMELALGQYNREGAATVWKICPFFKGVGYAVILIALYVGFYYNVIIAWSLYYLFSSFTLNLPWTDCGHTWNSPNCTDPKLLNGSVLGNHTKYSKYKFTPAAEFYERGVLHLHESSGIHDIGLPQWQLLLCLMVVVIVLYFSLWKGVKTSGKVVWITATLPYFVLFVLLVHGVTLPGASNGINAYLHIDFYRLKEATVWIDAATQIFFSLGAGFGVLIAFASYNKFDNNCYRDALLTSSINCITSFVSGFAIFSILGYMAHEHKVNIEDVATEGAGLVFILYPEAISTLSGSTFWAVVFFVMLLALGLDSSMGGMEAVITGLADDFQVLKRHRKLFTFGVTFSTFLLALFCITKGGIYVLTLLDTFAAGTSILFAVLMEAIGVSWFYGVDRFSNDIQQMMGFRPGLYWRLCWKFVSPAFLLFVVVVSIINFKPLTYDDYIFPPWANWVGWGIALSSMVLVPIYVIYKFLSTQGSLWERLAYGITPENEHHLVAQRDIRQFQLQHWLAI

Turning to `COc1ccc(C(N)=O)cn1` [JBSNF-000088, 6-methoxynicotinamide], the concentration for half-maximal inhibition (IC50) (commonly the concentration needed to halve the response being measured) in data set [1] came to 1600 nM. In [2] (10 µM), the “E% (agonistic), OPRM1” value is recorded as -1%. Also, the inhibition at 10 µM in data set [2] (OPRM1, read-out: I% (antagonistic or inhibitory), OPRM1) was -8%; in data set [3] (read-out: I% (antagonistic or inhibitory), ADRB1), -33%; in data set [4] (read-out: I% (antagonistic or inhibitory), H1) it was -5%; in [6] (read-out: I% (antagonistic or inhibitory), ADORA1) it was -1%; in [9], 9%. Moreover, the “E% (agonistic), ADRB1” value in data set [3] (10 µM) is given as 3%. Also, the “E% (agonistic), H1” value in [4] (10 µM) was -2%. Further, in data set [5], the “I% (antagonistic or inhibitory), SK+Ca channel” value is reported as -4%. The “E% (agonistic), ADORA1” value in data set [6] (10 µM) was -3%. In data set [7], the HOMA-IR result is “no change”. Also, in [7] (50 mg kg^−1 bid, four weeks, vs vehicle), the body weight gain entry is recorded as “gained comparable weight”. The “MNA levels in liver and visceral WAT and s/c fat” value in data set [7] (30 days, p < 0.0001 vs vehicle control) is reported as “statistically significant reduction”. The fed blood glucose result in data set [7] (day 21, p < 0.001 vs vehicle control) is reported as “moderate but statistically significant reduction”. Also, the glucose tolerance entry in data set [7] (day 26, not statistically significant) was “trend towards improvement”. Moreover, the “Fed insulin levels on days 7, 14 and 21 and fasting insulin levels on day 28” value in [7] (vs vehicle) is given as “not different”. In addition, the cumulative food intake result in data set [7] (vs vehicle) was “comparable”. The “AUC blood glucose (OGTT)” value in data set [7] (vs vehicle control) is reported as “Slightly lower”. Further, the concentration at 1 h in data set [8] (plasma) turned out to be 275 ± 39 µM; in data set [8] (subcutaneous fat) it was 6.94 ± 1.52 µM; in [8] (visceral fat), 7.14 ± 2.18 µM. Also, the “I% (antagonistic or inhibitory), K+ Channel Voltage Dependent” value in [10] is listed as 3%.
